Counter-ions that a name gives are not always drawn.
What was measured:
[1] = system: pERK (phospho-p44/42 MAPK Thr202/Tyr204) in HCC827 cells; assay: Cellular pERK Inhibition Assay, Method B (PathScan phospho-p44/42 MAPK sandwich ELISA); assay type: cell-based; details: Homo sapiens, Table 20, read-out: pERK (IC50, μM) Method B
Protocol: Cellular pERK Inhibition Assay
HCC827 cells (ATCC, Manassas, USA) were seeded into 96-well plates at a density of 1×10^5 cells/well in RPMI medium supplemented with 10% FBS and incubated 24h. Compounds were diluted first in DMSO and then into serum-free medium, before being added to cells in triplicate to give a final concentration of 0.1% DMSO. Plates were incubated at 37° C. for the indicated time in a humidified atmosphere of 5% CO2 in air.
Following compound treatment, medium was removed and cells were lysed by adding 50 μL of lysis buffer (Cell Signalling Technology, Beverly, USA) to each well. Plates were then incubated at room temperature for 25 minutes with shaking. pERK levels were measured in lysates using the PathScan(Registered Trademark) phospho-p44/42 MAPK (Thr202/Tyr204) sandwich ELISA (Cell Signalling Technology, Beverly, USA) as per kit instructions. Briefly, 50 μL of cell lysate was added to 50 μL of ELISA sample diluent in a 96-well ELISA plate and incubated overnight at 4° C. Following washing, 100 μL of detection antibody was added per well and the plates incubated for 1 hour at 37° C. Plates were washed again and incubated at 37° C. for 30 minutes with 100 μl of HRP-linked secondary antibody per well. After final washing, 100 μL per well of TMB substrate was added and plates incubated at 37° C. to develop colour. Colour development was stopped by the addition of 100 μL per well of stop solution. Plates were read at 450 nm on a SpectraMax Gemini reader (Molecular Devices, Uckfield, UK).
The average signal from blank wells (no cells added) was subtracted from the signals from each sample well. Levels of pERK were then expressed as “percent of control”, using DMSO treated samples as control. Dose response curves were generated using GraphPad Prism Version 6 (GraphPad Software, La Jolla, USA) and fitted using the four parameter logistic curve fit.

SHP2 = SHP2 (Homo sapiens (Human), UniProt Q06124); assay: SHP2 Biochemical Assay (DiFMUP conversion, pIRS1-activated); details: Table 20
Sequence of SHP2 (Q06124 whole entry): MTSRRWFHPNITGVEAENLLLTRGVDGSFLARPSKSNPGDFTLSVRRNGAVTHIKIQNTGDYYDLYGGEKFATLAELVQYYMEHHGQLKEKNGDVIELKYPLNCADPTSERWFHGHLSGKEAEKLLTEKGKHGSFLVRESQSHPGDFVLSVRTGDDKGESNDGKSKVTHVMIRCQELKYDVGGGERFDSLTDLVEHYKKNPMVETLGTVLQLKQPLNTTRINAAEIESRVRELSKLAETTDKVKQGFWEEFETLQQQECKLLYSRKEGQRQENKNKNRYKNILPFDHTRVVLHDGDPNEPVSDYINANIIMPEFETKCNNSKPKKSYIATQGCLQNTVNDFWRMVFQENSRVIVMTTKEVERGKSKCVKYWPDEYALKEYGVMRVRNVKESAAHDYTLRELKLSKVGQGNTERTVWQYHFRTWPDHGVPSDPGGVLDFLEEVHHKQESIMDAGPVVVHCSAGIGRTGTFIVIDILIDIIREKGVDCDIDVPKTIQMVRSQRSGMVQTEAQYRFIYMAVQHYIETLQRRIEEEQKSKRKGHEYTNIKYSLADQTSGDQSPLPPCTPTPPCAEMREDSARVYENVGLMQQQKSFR
Outline: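 Rates of DiFMU formation were followed 30 min at ex 360/em 450 nm, with 50 μM DiFMUP, 10 pM SHP2 and pIRS1 peptide ([…]) after 30 min compound pre-incubation at pH 7.0 Bis-Tris propane. Four-parameter logistic IC50s in singlicate; repeat runs averaged.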

SMILES | IC50 [1] [µM] | IC50 (SHP2) [nM]
CCn1cc2c(F)c(-c3c[nH]c4nc(N5CCC6(CC5)COC[C@H]6N)n(C)c(=O)c34)ccc2n1 [Example 181, 2-[(4S)-4-amino-2-oxa-8-azaspiro[4.5]decan-8-yl]-5-(2-ethyl-4-fluoro-2H-indazol-5-yl)-3-methyl-3H,4H,7H-pyrrolo[2,3-d]pyrimidin-4-one hydrochloride] | 0.21 | 23
CCn1cc2ccc(-c3c[nH]c4nc(N5CCC6(CC5)COC[C@H]6N)n(C)c(=O)c34)c(Cl)c2n1 [Example 182, 2-[(4S)-4-amino-2-oxa-8-azaspiro[4.5]decan-8-yl]-5-(7-chloro-2-ethyl-2H-indazol-6-yl)-3-methyl-3H,4H,7H-pyrrolo[2,3-d]pyrimidin-4-one hydrochloride] | 2.2 | 36
CCn1cc2ccc(-c3c[nH]c4nc(N5CCC6(CC5)COC[C@H]6N)n(C)c(=O)c34)c(F)c2n1 [Example 184, 2-[(4S)-4-amino-2-oxa-8-azaspiro[4.5]decan-8-yl]-5-(2-ethyl-7-fluoro-2H-indazol-6-yl)-3-methyl-3H,4H,7H-pyrrolo[2,3-d]pyrimidin-4-one hydrochloride] | 1.1 | 70
Cn1c(N2CC[C@H](N)[C@H](F)C2)nc2[nH]cc(-c3ccc4ncsc4c3Cl)c2c1=O [Example 187, 2-[(3R,4S)-4-amino-3-fluoropiperidin-1-yl]-5-(7-chloro-1,3-benzothiazol-6-yl)-3-methyl-3H,4H,7H-pyrrolo[2,3-d]pyrimidin-4-one hydrochloride] | 0.8 | 51
Cn1cc2c(Cl)c(-c3c[nH]c4nc(N5[C@H]6CCNC[C@@H]5CC6)n(C)c(=O)c34)ccc2n1 [Example 188, 5-(4-chloro-2-methyl-2H-indazol-5-yl)-2-[(1S,6R)-3,9-diazabicyclo[4.2.1]nonan-9-yl]-3-methyl-3H,4H,7H-pyrrolo[2,3-d]pyrimidin-4-one hydrochloride] | 0.56 | 41
Cn1cc2c(Cl)c(-c3c[nH]c4nc(N5[C@@H]6CCNC[C@H]5CC6)n(C)c(=O)c34)ccc2n1 [Example 189, 5-(4-chloro-2-methyl-2H-indazol-5-yl)-2-[(1R,6S)-3,9-diazabicyclo[4.2.1]nonan-9-yl]-3-methyl-3H,4H,7H-pyrrolo[2,3-d]pyrimidin-4-one hydrochloride] | 0.23 | 19
C[C@@H]1OCC2(CCN(c3nc4[nH]cc(-c5cc(F)c6nn(C)cc6c5Cl)c4c(=O)n3C)CC2)[C@@H]1N [Example 194, 2-[(3S,4S)-4-amino-3-methyl-2-oxa-8-azaspiro[4.5]decan-8-yl]-5-(4-chloro-7-fluoro-2-methyl-2H-indazol-5-yl)-3-methyl-3H,4H,7H-pyrrolo[2,3-d]pyrimidin-4-one hydrochloride] | 0.043 | 16
Cn1cc2c(Cl)c(-c3c[nH]c4nc(N5[C@H]6CC[C@@H]5[C@](C)(N)C6)n(C)c(=O)c34)ccc2n1 [Example 195, 2-[(endo)-2-amino-2-methyl-7-azabicyclo[2.2.1]heptan-7-yl]-5-(4-chloro-2-methyl-2H-indazol-5-yl)-3-methyl-3H,4H,7H-pyrrolo[2,3-d]pyrimidin-4-one hydrochloride] | 0.045 | 16
CCn1cc2c(Cl)c(-c3c[nH]c4nc(N5[C@H]6CC[C@@H]5[C@@H](F)[C@@H](N)C6)n(C)c(=O)c34)ccc2n1 [Example 197, 2-[(1R,2S,3S,5S)-3-amino-2-fluoro-8-azabicyclo[3.2.1]octan-8-yl]-5-(4-chloro-2-ethyl-2H-indazol-5-yl)-3-methyl-3H,4H,7H-pyrrolo[2,3-d]pyrimidin-4-one hydrochloride] | 0.032 | 12
CN(C)c1ccc2ccc(-c3c[nH]c4nc(N5[C@H]6CC[C@@H]5[C@H](N)C6)n(C)c(=O)c34)c(Cl)c2n1 [Example 198, 2-[(1R,2R,4S)-2-amino-7-azabicyclo[2.2.1]heptan-7-yl]-5-[8-chloro-2-(dimethylamino)quinolin-7-yl]-3-methyl-3H,4H,7H-pyrrolo[2,3-d]pyrimidin-4-one hydrochloride] | 0.066 | 13
CNc1ccc2ccc(-c3c[nH]c4nc(N5[C@H]6CC[C@@H]5[C@H](N)C6)n(C)c(=O)c34)c(Cl)c2n1 [Example 199, 2-[(1R,2R,4S)-2-amino-7-azabicyclo[2.2.1]heptan-7-yl]-5-[8-chloro-2-(methylamino)quinolin-7-yl]-3-methyl-3H,4H,7H-pyrrolo[2,3-d]pyrimidin-4-one hydrochloride] | 0.11 | 14

From patent US12037345B2, “Heterobicyclic compounds for inhibiting the activity of SHP2” (TAIHO PHARMACEUTICAL CO., LTD., priority 2018, dated 2024)
